Values quoted from earlier work in patent publication US6642275B2, “Formulation for respiratory tract administration” (Euro- Celtique, S.A., priority 1995, dated 2003).
Like-named read-outs stand apart in the source and are kept apart here.

How the values were obtained:
[1] = animal models, M1 vs tramadol
[2] = test system: opioid receptors
[3] = for plasma clearance rate: 100 mg IV dose
[4] = single oral dose, adjusted for body weight

CN(C)C[C@H]1CCCC[C@]1(O)c1cccc(O)c1 [Formula M1, mono-O-desmethyltramadol]
potency in producing analgesia relative to tramadol [1]: up to 6 times | potency in producing analgesia relative to tramadol ([1]; listed as mono-O-desmethyltramadol): about 6 times | binding to opioid receptors (affinity, in words) [2]: high affinity | potency in opioid receptor binding relative to tramadol ([2]; M1 vs tramadol): 200 times

COc1cccc([C@@]2(O)CCCC[C@H]2CN(C)C)c1 (racemic) [tramadol, (±) trans-2-[(dimethylamino)methyl]-1-(3-methoxyphenyl) cyclohexanol]
plasma clearance rate ([3]; females): 5.7 mL/min/kg | plasma clearance rate ([3]; males): 6.4 mL/min/kg | higher area under the concentration-time curve in females compared to males [3, 4]: 35% | higher peak tramadol concentration in females compared to males [3, 4]: 12%
